Consider 13 molecules from patent US8877463B2, “Rhodanobacter ginsenosidimutans KCTC22231T-derived ginsenoside glycosidase, and use thereof” (Korea Research Institute of Bioscience and Biotechnology, priority 2009, dated 2014).

Assay [1] relates to ginsenoside glycosidase (Bgl3054). Nature of the assay: Kinetic studies of pNPGlc hydrolysis (Km, Vmax). The format is biochemical, Rhodanobacter ginsenosidimutans KCTC22231T. The conditions noted are these: pNPGlc 0.1 mM to 0.6 mM, 37° C., 20 minutes, absorbance 405 nm. The protocol: Further, kinetic studies were performed with freshly purified enzyme using pNPGlc (p-nitrophenyl-β-D-glucopyranoside; Sigma) at the concentrations of from 0.1 mM to 0.6 mM. Its absorbance at 405 nm was monitored at 37° C. for 20 minutes. The resulting data were used to determine Km and Vmax using the Enzyme Kinetics Program reported by Cleland.
Km and Vmax for the hydrolysis of pNPGlc (p-nitrophenyl-β-D-glucopyranoside; Sigma) by ginsenoside glycosidase were calculated using the Enzyme Kinetics Program reported by Cleland.

A further assay deals with Bgl3054. Nature of the assay: Substrate preference with chromogenic ONP and PNP substrates. The format is biochemical, Rhodanobacter ginsenosidimutans KCTC22231T. The conditions noted are these: 2.0 mM substrate, 37° C., 5 minutes; for activity of Bgl3054 for the substrate, rank order after ONP-β-D-fucopyranoside: descending order as listed: PNP-fucopyranoside, oNP-glucopyranoside, ONP-galactopyranoside, PNP-glucopyranoside, PNP-arabinopyranoside, PNP-galactopyranoside. Here is the method:
A free PNP-type substrate has a yellow color, but turns colorless when it binds with various sugars. The characteristics of glucosidase-type enzymes were analyzed using this principle. For example, PNPGlc is a colorless compound prepared by beta linkage of PNP and glucose, but free PNP catalyzed by beta-glucosidase has a yellow color. Thus, when a color change occurs by use of PNPGlc as a substrate, the enzyme is determined as a beta-glucosidase. In addition, when PNP-β-D-galactopyranoside is metabolized by an enzyme to produce yellow color, it is determined as β-D-galactopyranosidase. The color becomes darker according to characteristics and concentrations of the substrate, and thus it is possible to measure the concentration of the enzyme using a spectrometer.
1 activity unit was defined as the release of o-nitrophenol or p-nitrophenol per minute. For analysis of substrate preference, 2.0 mM chromogenic ONP and PNP (p-nitrophenyl) were used as the substrates, and incubated in 50 mM sodium phosphate buffer at 37° C. for 5 minutes.
The analyzed substrates (Sigma) were PNP-β-D-glucopyranoside, PNP-β-D-galactopyranoside, PNP-β-D-fucopyranoside, PNP-N-acetyl-β-D-glucosaminide, PNP-β-L-arabinopyranoside, PNP-β-D-mannopyronoside, PNP-β-D-xylopyranoside, PNP-β-D-glucopyranoside, PNP-β-L-arabinofuranoside, PNP-β-L-arabinopyranoside, PNP-β-D-rhamnopyranoside, PNP-β-D-mannopyranoside, and PNP-β-D-xylopyranoside, and o-nitrophenol[ONP]-β-D-glucopyranoside, ONP-β-D-galactopyranoside, ONP-β-D-fucopyranoside, and ONP-β-D-galactopyranoside.

Assay [2] relates to Bgl3054 ginsenoside glycosidase. Nature of the assay: Specificity and selectivity of the enzyme for hydrolysis of ginsenosides (TLC, HPLC, NMR). The format is biochemical, Rhodanobacter ginsenosidimutans KCTC22231T. The conditions noted are these: 0.2U enzyme, 50 mM sodium phosphate buffer pH 7.0, 0.1% (w/v) substrate, 37° C. The protocol:
In order to analyze the specificity and selectivity of the enzyme for the hydrolysis of glucose at the C-3 and C-20 positions of ginsenoside, ginsenoside Rb1, Rb2, Rc, Rd, and Rg3 were used as the substrates. Each reaction mixture containing 0.2U enzyme, 50 mM sodium phosphate buffer 0.1% (w/v) (pH 7.0), and the substrate was incubated at 37° C. Each sample was withdrawn at regular intervals, and an equal volume of water-saturated butanol was added to stop the reaction. The n-butanol fraction was evaporated to dryness, and residual material was dissolved in CH3OH and then examined by TLC HPLC or NMR analysis, and the results are shown in FIGS. 10, 11 and 12.

Assay [3] has as its target ginsenoside glycosidase (Bgl3054) (Microbacterium sp. Gsoil167, UniProt L0ELG0). Nature of the assay: Metal and chemical agent effects on enzymatic activity. The format is biochemical, Rhodanobacter ginsenosidimutans KCTC22231T. The conditions noted are these: at the concentration of 10 mM or more; room temperature 30 minutes; pNPGlc substrate. The protocol: Specific activity was measured using 90 μl of 50 mM sodium phosphate buffer containing 2.0 mM pNPGlc (p-nitrophenyl-β-D-glucopyranoside; Sigma) at pH 7.0, and 10 μl of the diluted purified enzyme was treated at 37° C. for 20 minutes before initiation of the reaction, followed by incubation. 0.1 ml of 1 M Na2CO3 was treated for 5 minutes to terminate the reaction, and the concentration of p-nitrophenol was immediately measured at 405 nm. One unit of activity was defined as the amount of enzyme that released 1 μmol of p-nitrophenol per minute. Specific activity is expressed in units per milligram protein. Protein concentration was measured using a Bio-Rad protein staining reagent according to the protocol. All analyses were performed at least three times.
Ginsenoside glycosidase was incubated at room temperature for 30 minutes in 1 mM and 10 mM (final concentration) of ZnCl2, MnCl2, CaCl2, CoCl2, MgCl2, EDTA, NaCl, KCl, CuCl2, DTT, SDS, and mercaptoethanol, and pNPGlc (p-nitrophenyl-β-D-glucopyranoside; Sigma) was used as a substrate to measure the activity. The resulting value was represented as a percentage to the obtained activity upon lack of the compounds, and is shown in Table 1.

Assay [4] concerns ginsenoside glycosidase Bgl3054. Nature of the assay: Reaction of expressed ginsenoside glycosidase with Rb1 solution, TLC analysis. The format is biochemical, Rhodanobacter ginsenosidimutans KCTC22231T. The conditions noted are these: 1 mg/ml Rb1 solution in 50 mM sodium phosphate. The protocol: E.coil C41 (DE3) containing overexpressed plasmid was cultured in LB-ampicillin media at 37° C. when the OD value at 600 nm reached 0.6, and treated with 0.5 mM isopropyl-β-D-thiogalactopyranoside for 12 hours to induce protein expression. The bacterial cells were obtained by centrifugation at 4° C. and 5,000×g for 20 minutes. The cell pellet was resuspended in a solution (suspension) consisting of 50 mM sodium phosphate, 5 mM EDTA, and 1% Triton X-100 (pH 7.0) and subjected to ultrasonification. Ginsenoside glycosidase was completely hydrated without formation of insoluble precipitate, and ginsenoside glycosidase was reacted with 1 mg/ml Rb1 solution in 50 mM sodium phosphate, and TLC analysis was performed.

Assay [5] is classed as biochemical. The conditions noted are these: 2.0 mM pNPGlc, 50 mM buffers. The protocol:
The effect of pH on the enzymatic activity was measured. 2.0 mM pNPGlc (p-nitrophenyl-β-D-glucopyranoside; Sigma) was used as a substrate, and pH was adjusted using the following buffer (50 mM).
pH range of 2 to 10: KCl-HCl (pH 2), glycine-HCl (pH 3), sodium acetic acid (pH 4 and 5), sodium phosphate (pH 6 and 7), Tris-HCl (pH 8 and 9) and glycine-sodium hydroxide (pH 10) Further, the effect of pH on the enzymatic stability was measured. The enzyme was incubated in each of the above mentioned buffers at 4° C. for 24 hours, and then pHPGlc was analyzed in 50 mM potassium buffer to measure the enzymatic stability according to pH change. Residue activity was analyzed according to a standard analytical procedure, and the results are shown in FIG. 6 as an activity probability obtained at the optimum pH.

The format of assay [6] is biochemical. The conditions noted are these: 4-90° C., 2.0 mM pNPGlc, 50 mM potassium phosphate buffer, optimum pH, 5 minutes. The protocol:
The effect of temperature on the enzymatic activity was measured. The temperature was adjusted between 4-90° C., and 2.0 mM pNPGlc (p-nitrophenyl-β-D-glucopyranoside; Sigma) was used to analyze the temperature-dependent activity in the 50 mM potassium phosphate buffer at the optimum pH for 5 minutes.
Further, the equivalent amount of enzyme was incubated in 50 mM potassium phosphate buffer within the same temperature range for 30 minutes to analyze the temperature stability. The sample was cooled in ice for 10 minutes, and the residual activity was measured according to a standard analytical procedure, and the results are shown in FIG. 7.

`O=[N+]([O-])c1ccc(O[C@@H]2O[C@H](CO)[C@@H](O)[C@H](O)[C@H]2O)cc1` [pNPGlc, p-nitrophenyl-β-D-glucopyranoside]: in assay [1], the “Vmax for the hydrolysis of pNPGlc by ginsenoside glycosidase” value was 0.3177(±0.01654) mmol*min−1*mg of protein-1. Moreover, the “activity of Bgl3054 for the substrate, rank order after ONP-β-D-fucopyranoside” value (from here on “activity … after ONP-β-D-fucopyranoside”) in the assay on Bgl3054 was “higher activity in this order”. With `CC(C)=CCC[C@](C)(O[C@@H]1O[C@H](CO[C@@H]2O[C@@H](CO)[C@H](O)[C@H]2O)[C@@H](O)[C@H](O)[C@H]1O)[C@H]1CC[C@]2(C)[C@@H]1[C@H](O)C[C@@H]1[C@@]3(C)CC[C@H](O[C@@H]4O[C@H](CO)[C@@H](O)[C@H](O)[C@H]4O[C@@H]4O[C@H](CO)[C@@H](O)[C@H](O)[C@H]4O)C(C)(C)[C@@H]3CC[C@]12C` [Ginsenoside Rc, ginsenoside Rc], the “bioconversion of the ginsenoside substrate by the enzyme” value (from here on “bioconversion”) in assay [2] is reported as “converted into compound Mc1”. For the molecule `O=[N+]([O-])c1ccccc1O[C@@H]1O[C@H](CO)[C@@H](O)[C@H](O)[C@H]1O` [oNP-β-D-glucopyranoside, o-nitrophenol[ONP]-β-D-glucopyranoside], the “activity … after ONP-β-D-fucopyranoside” value in the assay on Bgl3054 is “higher activity in this order”. Consider `CCCCCCCCCCCCOS(=O)(=O)[O-].[Na+]` [SDS], for which the “effect on the enzymatic activity” value in assay [3] was “inhibitory effect”. Turning to `CC(C)=CCC[C@](C)(O[C@@H]1O[C@H](CO[C@@H]2OC[C@H](O)[C@H](O)[C@H]2O)[C@@H](O)[C@H](O)[C@H]1O)[C@H]1CC[C@]2(C)[C@@H]1[C@H](O)C[C@@H]1[C@@]3(C)CC[C@H](O[C@@H]4O[C@H](CO)[C@@H](O)[C@H](O)[C@H]4O[C@@H]4O[C@H](CO)[C@@H](O)[C@H](O)[C@H]4O)C(C)(C)[C@@H]3CC[C@]12C` [Rb2, ginsenoside Rb2], the “bioconversion” value in assay [2] is listed as “converted into Rd”. For the molecule `C[C@H]1O[C@@H](Oc2ccccc2[N+](=O)[O-])[C@H](O)[C@@H](O)[C@H]1O` [ONP-β-D-fucopyranoside], the “activity of Bgl3054 for the substrate (substrate preference)” value in the assay with Bgl3054 (50 mM sodium phosphate buffer) is listed as “highest activity”. As for `CC(C)=CCC[C@](C)(O[C@@H]1O[C@H](CO[C@@H]2O[C@H](CO)[C@@H](O)[C@H](O)[C@H]2O)[C@@H](O)[C@H](O)[C@H]1O)[C@H]1CC[C@]2(C)[C@@H]1[C@H](O)C[C@@H]1[C@@]3(C)CC[C@H](O[C@@H]4O[C@H](CO)[C@@H](O)[C@H](O)[C@H]4O[C@@H]4O[C@H](CO)[C@@H](O)[C@H](O)[C@H]4O)C(C)(C)[C@@H]3CC[C@]12C` [Ginsenoside Rb1, ginsenoside Rb1], the “conversion of ginsenoside by Bgl3054 (TLC)” value in assay [4] is reported as “into F2 via Rd”. In addition, the “bioconversion” value in assay [2] is on record as “converted into Rd”. As to `O=[N+]([O-])c1ccc(O[C@@H]2O[C@H](CO)[C@H](O)[C@H](O)[C@H]2O)cc1` [PNP-β-D-galactopyranoside], the “activity … after ONP-β-D-fucopyranoside” value in the assay with Bgl3054 is reported as “higher activity in this order”.

As to `CC(C)=CCC[C@](C)(O[C@@H]1O[C@H](CO)[C@@H](O)[C@H](O)[C@H]1O)[C@H]1CC[C@]2(C)[C@@H]1[C@H](O)C[C@@H]1[C@@]3(C)CC[C@H](O[C@@H]4O[C@H](CO)[C@@H](O)[C@H](O)[C@H]4O[C@@H]4O[C@H](CO)[C@@H](O)[C@H](O)[C@H]4O)C(C)(C)[C@@H]3CC[C@]12C` [Rd, ginsenoside Rd], in assay [2], the “bioconversion” value was “converted into F2”. As to `O=[N+]([O-])c1ccccc1O[C@@H]1O[C@H](CO)[C@H](O)[C@H](O)[C@H]1O` [ONP-β-D-galactopyranoside], the “activity … after ONP-β-D-fucopyranoside” value in the assay with Bgl3054 is “higher activity in this order”. The same measure, in the same setting: next, `C[C@H]1O[C@@H](Oc2ccc([N+](=O)[O-])cc2)[C@H](O)[C@@H](O)[C@H]1O` [PNP-β-D-fucopyranoside]: “higher activity in this order”. With `O=[N+]([O-])c1ccc(O[C@H]2OC[C@H](O)[C@H](O)[C@H]2O)cc1` [PNP-β-L-arabinopyranoside], the “activity … after ONP-β-D-fucopyranoside” value in the assay with Bgl3054 was “higher activity in this order”.

B1: Bgl3054: Rhodanobacter ginsenosidimutans KCTC22231T-derived ginsenoside glycosidase protein, 433 amino acids, SEQ ID NO. 2 (protein)
chain: GLGRRRASMMRGTPMTNPFPQDFLWGVATAGHQVEGNNVNSDVWFLEHLPGTIFAEPSGDAVDHYHRYREDIALIAGLGFTSYRFSVEWARIEPEEGHFSVAALDHYKRVLEACREHGLTPVVTFHHFASPLWLLRSGGWEGERTPELFARYCGRVMAHLGDLIGVACTLNEPNLPWLLESFGIGGEAPENRGKVPMWAAAAQRLGVDASTVAPFQFCSTEAGFNVKLAAHKAATEAIKAHRPDLRVGWTLANSDIQSVPGGEEIAAQVRRDVNERFLEASRGDDFVGIQTYGRTVYGPDGHAPAPEGVAVNQMGEEIYPQALEATIREAWRVAGIPVMVTENGLATEDDTQRVAYLRTAVDGVASCLADGIDVRGYIAWTAFDNFEWIFGYGPKFGLIAVDRSTQERTPKESARWLGNFARQQAPAEAPQPA
modifications: Bgl3054
With B1, the “pH of highest activity” value in assay [5] came to 7.0. Moreover, the “temperature of maximum activity” value in assay [6] is 40-55 °C.
